Source: US20250101028A1, “HETEROCYCLIC COMPOUNDS, COMPOSITIONS THEREOF, AND METHODS OF TREATMENT THEREWITH” (BeiGene, Ltd., priority 2022, published 2025)

Molecular target: T1, GST-tagged GDP-loaded KRAS G12V (amino acids 1-169) (Homo sapiens, UniProt P01116, G12V)
T1 construct: GST-tagged GDP-loaded KRAS G12V (amino acids 1-169); made in house; host or cells: E. coli
Test: KRAS G12V probe displacement assay (TR-FRET)
Assay type: binding
Details: displacement of biotinylated probe 2 from GDP-loaded KRAS G12V
Procedure, shortened: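 Probe displacement read as TR-FRET (665/620 nm) with anti-GST-Tb and streptavidin-XL665, IC50 from four-parameter logistic fit. Compound preincubated 1 h, 24 °C, with E. coli-expressed KRAS 1-169: WT at 3 nM with 60 nM probe 1, G12V at 2 nM with 2.5 nM probe 2, pH 7.5.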

T1 sequence (P01116 1-169 isoform P01116-2 G12V): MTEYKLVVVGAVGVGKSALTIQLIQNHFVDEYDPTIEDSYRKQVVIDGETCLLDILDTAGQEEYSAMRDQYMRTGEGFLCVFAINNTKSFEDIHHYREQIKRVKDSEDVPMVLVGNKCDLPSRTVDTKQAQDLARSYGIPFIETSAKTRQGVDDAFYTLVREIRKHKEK

SMILES	IC50 [nM]
CC1CN(c2nc(OC[C@@]34CCCN3C[C@H](F)C4)nc3c(F)c(-c4cc(N)cc(Cl)c4C(F)(F)F)ncc23)CCO1 (stereo partly drawn) [Example 119, 3-chloro-5-(8-fluoro-2-(((2R,7aS)-2-fluorotetrahydro-1H-pyrrolizin-7a(5H)-yl)methoxy)-4-(2-methylmorpholino)pyrido[4,3-d]pyrimidin-7-yl)-4-(trifluoromethyl)aniline]	24
Nc1cc(Cl)c(C(F)(F)F)c(-c2ncc3c(N4CCO[C@H](CO)C4)nc(OC[C@@]45CCCN4C[C@H](F)C5)nc3c2F)c1 [Example 120, ((2S)-4-(7-(5-amino-3-chloro-2-(trifluoromethyl)phenyl)-8-fluoro-2-((2-fluorotetrahydro-1H-pyrrolizin-7a(5H)-yl)methoxy)pyrido[4,3-d]pyrimidin-4-yl)morpholin-2-yl)methanol]	6.6
CC1(C#N)CN(c2nc(OC[C@@]34CCCN3C[C@H](F)C4)nc3c(F)c(-c4ccc(F)c5sc(N)nc45)c(C(F)(F)F)cc23)C1 [Example 42, 1-(7-(2-amino-7-fluorobenzo[d]thiazol-4-yl)-8-fluoro-2-(((2R,7aS)-2-fluorotetrahydro-1H-pyrrolizin-7a(5H)-yl)methoxy)-6-(trifluoromethyl)quinazolin-4-yl)-3-methylazetidine-3-carbonitrile]	70
N#CCC1CCCN(c2nc(OC[C@@]34CCCN3C[C@H](F)C4)nc3c(F)c(-c4cc(N)cc(Cl)c4C(F)(F)F)ncc23)C1 (stereo partly drawn) [Example 126, 2-(1-(7-(5-amino-3-chloro-2-(trifluoromethyl)phenyl)-8-fluoro-2-(((2R,7aS)-2-fluorotetrahydro-1H-pyrrolizin-7a(5H)-yl)methoxy)pyrido[4,3-d]pyrimidin-4-yl)piperidin-3-yl)acetonitrile]	6.3
Nc1nc2c(-c3c(C(F)(F)F)cc4c(N5CCCC5)nc(OC[C@@]56CCCN5C[C@H](F)C6)nc4c3F)ccc(F)c2s1 [Example 50, 7-fluoro-4-(8-fluoro-2-(((2R,7aS)-2-fluorotetrahydro-1H-pyrrolizin-7a(5H)-yl)methoxy)-4-(pyrrolidin-1-yl)-6-(trifluoromethyl)quinazolin-7-yl)benzo[d]thiazol-2-amine]	13
CCC1(O)CCCN(c2nc(OC[C@@]34CCCN3C[C@H](F)C4)nc3c(F)c(-c4cc(N)cc(Cl)c4C(F)(F)F)ncc23)C1 (stereo partly drawn) [Example 130, 1-(7-(5-amino-3-chloro-2-(trifluoromethyl)phenyl)-8-fluoro-2-(((2R,7aS)-2-fluorotetrahydro-1H-pyrrolizin-7a(5H)-yl)methoxy)pyrido[4,3-d]pyrimidin-4-yl)-3-ethylpiperidin-3-ol]	32
Nc1nc2c(-c3c(C(F)(F)F)cc4c(N5CCC6(CCNC6=O)CC5)nc(OC[C@@]56CCCN5C[C@H](F)C6)nc4c3F)ccc(F)c2s1 [Example 95, 8-(7-(2-amino-7-fluorobenzo[d]thiazol-4-yl)-8-fluoro-2-(((2R,7aS)-2-fluorotetrahydro-1H-pyrrolizin-7a(5H)-yl)methoxy)-6-(trifluoromethyl)quinazolin-4-yl)-2,8-diazaspiro[4.5]decan-1-one]	2.7
COC1CC1Nc1nc(OC[C@@]23CCCN2C[C@H](F)C3)nc2c(F)c(-c3ccc(F)c4sc(N)nc34)c(C(F)(F)F)cc12 (stereo partly drawn) [Example 6, 7-fluoro-4-(8-fluoro-2-(((2R,7aS)-2-fluorotetrahydro-1H-pyrrolizin-7a(5H)-yl)methoxy)-4-((2-methoxycyclopropyl)amino)-6-(trifluoromethyl)quinazolin-7-yl)benzo[d]thiazol-2-amine]	54
CC1CN(c2nc(OC[C@@]34CCCN3C[C@H](F)C4)nc3c(F)c(-c4cc(N)cc(Cl)c4C(F)(F)F)ncc23)CCC1C#N (stereo partly drawn) [Example 123, 1-(7-(5-amino-3-chloro-2-(trifluoromethyl)phenyl)-8-fluoro-2-(((2R,7aS)-2-fluorotetrahydro-1H-pyrrolizin-7a(5H)-yl)methoxy)pyrido[4,3-d]pyrimidin-4-yl)-3-methylpiperidine-4-carbonitrile]	22
Nc1nc2c(-c3c(C(F)(F)F)cc4c(NC5CCC(F)C5)nc(OC[C@@]56CCCN5C[C@H](F)C6)nc4c3F)ccc(F)c2s1 (stereo in doubt) [Example 25, 7-fluoro-4-(8-fluoro-4-(((1S,3R)-3-fluorocyclopentyl)amino)-2-(((2R,7aS)-2-fluorotetrahydro-1H-pyrrolizin-7a(5H)-yl)methoxy)-6-(trifluoromethyl)quinazolin-7-yl) benzo[d]thiazol-2-amine]	38
CC[C@H]1CCCN1c1nc(OC[C@@]23CCCN2C[C@H](F)C3)nc2c(F)c(-c3ccc(F)c4sc(N)nc34)c(C(F)(F)F)cc12 [Example 59, 4-(4-((S)-2-ethylpyrrolidin-1-yl)-8-fluoro-2-(((2R,7aS)-2-fluorotetrahydro-1H-pyrrolizin-7a(5H)-yl)methoxy)-6-(trifluoromethyl)quinazolin-7-yl)-7-fluorobenzo[d]thiazol-2-amine]	27
CN1CC2(CCN(c3nc(OC[C@@]45CCCN4C[C@H](F)C5)nc4c(F)c(-c5ccc(F)c6sc(N)nc56)c(C(F)(F)F)cc34)CC2)CC1=O [Example 97, 8-(7-(2-amino-7-fluorobenzo[d]thiazol-4-yl)-8-fluoro-2-(((2R,7aS)-2-fluorotetrahydro-1H-pyrrolizin-7a(5H)-yl)methoxy)-6-(trifluoromethyl)quinazolin-4-yl)-2-methyl-2,8-diazaspiro[4.5]decan-3-one]	3.8
N#C[C@@H]1CCN(c2nc(OC[C@@]34CCCN3C[C@H](F)C4)nc3c(F)c(-c4ccc(F)c5sc(N)nc45)c(C(F)(F)F)cc23)C[C@H]1O (mixture of isomers) [Example 75, 1-(7-(2-amino-7-fluorobenzo[d]thiazol-4-yl)-8-fluoro-2-(((2R,7aS)-2-fluorotetrahydro-1H-pyrrolizin-7a(5H)-yl)methoxy)-6-(trifluoromethyl)quinazolin-4-yl)-trans-3-hydroxypiperidine-4-carbonitrile]	3.8
Nc1cc(Cl)c(C(F)(F)F)c(-c2ncc3c(N4CCC(O)CC4)nc(OC[C@@]45CCCN4C[C@H](F)C5)nc3c2F)c1 [Example 127, 1-(7-(5-amino-3-chloro-2-(trifluoromethyl)phenyl)-8-fluoro-2-(((2R,7aS)-2-fluorotetrahydro-1H-pyrrolizin-7a(5H)-yl)methoxy)pyrido[4,3-d]pyrimidin-4-yl)piperidin-4-ol]	21
Nc1nc2c(-c3c(C(F)(F)F)cc4c(NC5CCC5)nc(OC[C@@]56CCCN5C[C@H](F)C6)nc4c3F)ccc(F)c2s1 [Example 10, 4-(4-(cyclobutylamino)-8-fluoro-2-(((2R,7aS)-2-fluorotetrahydro-1H-pyrrolizin-7a(5H)-yl)methoxy)-6-(trifluoromethyl)quinazolin-7-yl)-7-fluorobenzo[d]thiazol-2-amine]	19
Nc1nc2c(-c3c(C(F)(F)F)cc4c(N[C@H]5C[C@H](CO)C5)nc(OC[C@@]56CCCN5C[C@H](F)C6)nc4c3F)ccc(F)c2s1 [Example 21, ((trans)-3-((7-(2-amino-7-fluorobenzo[d]thiazol-4-yl)-8-fluoro-2-(((2R,7aS)-2-fluorotetrahydro-1H-pyrrolizin-7a(5H)-yl)methoxy)-6-(trifluoromethyl)quinazolin-4-yl)amino)cyclobutyl)methanol]	4.1
Cc1cc(N)nc(-c2c(Cl)cc3c(N4CC[C@H](O)C4)nc(OC[C@@]45CCCN4C[C@H](F)C5)nc3c2F)c1C(F)(F)F [Example 102, (3S)-1-(7-(6-amino-4-methyl-3-(trifluoromethyl)pyridin-2-yl)-6-chloro-8-fluoro-2-(((2R,7aS)-2-fluorotetrahydro-1H-pyrrolizin-7a(5H)-yl)methoxy)quinazolin-4-yl)pyrrolidin-3-ol]	46
Nc1nc2c(-c3c(C(F)(F)F)cc4c(N5CC(CO)C5)nc(OC[C@@]56CCCN5C[C@H](F)C6)nc4c3F)ccc(F)c2s1 [Example 48, (1-(7-(2-amino-7-fluorobenzo[d]thiazol-4-yl)-8-fluoro-2-(((2R,7aS)-2-fluorotetrahydro-1H-pyrrolizin-7a(5H)-yl)methoxy)-6-(trifluoromethyl)quinazolin-4-yl)azetidin-3-yl)methanol]	4.1
Nc1nc2c(-c3c(C(F)(F)F)cc4c(N[C@H]5C[C@H](O)C5)nc(OC[C@@]56CCCN5C[C@H](F)C6)nc4c3F)ccc(F)c2s1 [Example 12, (trans)-3-((7-(2-amino-7-fluorobenzo[d]thiazol-4-yl)-8-fluoro-2(((2R,7aS)-2-fluorotetrahydro-1H-pyrrolizin-7a(5H)-yl)methoxy)-6-(trifluoromethyl)quinazolin-4-yl)amino)cyclobutan-1-ol]	3.7
Nc1nc2c(-c3c(Cl)cc4c(N[C@H]5[C@@H]6COC[C@@H]65)nc(OC[C@@]56CCCN5C[C@H](F)C6)nc4c3F)ccc(F)c2s1 [Example 29, 4-(4-(((1R,5S,6r)-3-oxabicyclo[3.1.0]hexan-6-yl)amino)-6-chloro-8-fluoro-2-(((2R,7aS)-2-fluorotetrahydro-1H-pyrrolizin-7a(5H)-yl)methoxy)quinazolin-7-yl)-7-fluorobenzo[d]thiazol-2-amine]	15
CC1CCN1c1nc(OC[C@@]23CCCN2C[C@H](F)C3)nc2c(F)c(-c3ccc(F)c4sc(N)nc34)c(C(F)(F)F)cc12 (stereo partly shown) [Example 35]	30
Nc1nc2c(-c3c(Cl)cc4c(NC5CCC5)nc(OC[C@@]56CCCN5C[C@H](F)C6)nc4c3F)ccc(F)c2s1 [Example 31, 4-(6-chloro-4-(cyclobutylamino)-8-fluoro-2-(((2R,7aS)-2-fluorotetrahydro-1H-pyrrolizin-7a(5H)-yl)methoxy)quinazolin-7-yl)-7-fluorobenzo[d]thiazol-2-amine]	57
